Test results taken from patent publication US12031087B2, “Oxygenated solvents for improved production of oil and gas” (Board of Regents, The University of Texas System, priority 2019, dated 2024).

Tests used:
[1] = Miscibility of 3p with crude oil; format: physicochemical; conditions: room temperature, 30-95 wt % 3p
Excerpt: 3-Pentanone properties. […] The density of 3p is 760 kg/m^3 at the experimental conditions in this research (347 K and atmospheric pressure).

[2] = Density and viscosity of 3p, 3pRB and surfactant solution; format: physicochemical; conditions: 347 K and atmospheric pressure
[3] = Density of crude oil/3p mixtures (in-line densitometer); format: physicochemical; conditions: 347 K
Protocol: Density and viscosity experiments. […] The system consists mainly of automated pumps, a sample accumulator, an in-line fluid densitometer, an in-line viscometer, an oven, and an effluent accumulator. The pump (Teledyne ISCO 100DX) maintained the system pressure automatically by water.
In the density measuring cell (Anton Paar DMA-HPM), fluid's density is measured in a U-shaped tube, in the range from 0 to 3000 kg/m^3. The instrument precision of the density meter is ±1 kg/m^3. Anton Paar DMA-HPM uses the method of oscillating U-tube for its density measurement, in which the sample's density is calculated from the sample's period of oscillation. The in-line viscometer (ViscoPro 2100) measures the viscosity of a fluid in the range from 0.2 to 2 cp. The instrument precision of the viscometer is ±0.02 cp and repeatability is ±0.5% of the reading. During the viscosity measurement, the magnetic piston is surrounded by the fluid sample and oscillates under magnetic force. The sample's viscosity is calculated from the time required for the piston to complete a two-way cycle. The viscometer and density meter were placed in a Despatch oven (model LAC2-18-8). Light-emitting diode screens that display measured data from the fluid densitometer and viscometer were connected outside the oven. The absolute pressure of the system was measured with a pressure gauge (Omega PX459-2.5KGI-EH).
Densities and viscosities were measured for the following mixtures of crude oil and 3p: 81.4 wt % crude oil and 18.6 wt % 3p (33 mol % 3p), 59.0 wt % crude oil and 41.0 wt % 3p (60 mol % 3p), and 35.1 wt % crude oil and 64.9 wt % 3p (80 mol % 3p). Each mixture was mixed in a glass bottle with a magnetic mixer before placing it in the accumulator.
Before each measurement, the system was cleaned thoroughly with toluene. Then, the system was dried by air and evacuated. Next, the fluid mixture was pumped into the system from the accumulator. Then, the temperature in the oven was increased to 347 K. When the temperature in the oven was stable, the mixture was measured for viscosities and densities at different pressures, ranging from 101 kPa to 10342 kPa.

[4] = Spontaneous imbibition in Amott cells; conditions: oil diluted by 18.6 wt % 3p
[5] = Coreflooding of fractured cores, vertical (Example 2)
Protocol: Experimental Procedure for Coreflooding. […] The Indiana limestone cores have the common dimensions with a diameter of 0.0254 m and a length of 0.127 m. The cores were saturated with RB first and then oil, during which the core properties were measured, such as porosity, permeability, and water and oil saturations.
It includes an accumulator for crude oil, a pump, a Hassler-type core holder, a hydraulic manual pump to maintain the overburden pressure, a differential pressure gauge, cylinders, and an oven. After a core was placed in the core holder, oil was injected into the cores at 100 cm^3/h and 347 K until no water production was observed.
An artificial fracture was created along the longitudinal axis using an electric saw for each core (FIG. 20). By following the procedure of Mejia, Teflon spacers with 0.001 m in width and 0.127 m in length were placed along two edges of the fracture to maintain a fracture aperture. Then, the core halves were carefully put together with the Teflon spacers in the fracture, wrapped with a Teflon tube, and placed inside a vertically oriented coreholder.
FIG. 21 provides a schematic of the experimental setup for coreflooding. It consists of accumulators for crude oil, RB, and chemical solution (3-pentanone or surfactant), a pump, a Hassler-type core holder, a hydraulic manual pump to maintain the overburden pressure, a differential pressure gauge, cylinders, and an oven. […] After a fractured core was placed in the coreholder, the oven temperature was increased to reservoir temperature (347 K). Then, the core was flooded with crude oil to remove any gas inside the fracture and measure the fracture permeability using the flow rate of 900 cm^3/h. The overburden pressure was adjusted so that all cores used in this research had similar fracture apertures and fracture permeabilities.
Fracture permeabilities were calculated. The equation for flow between parallel plates b=(3πdke)^1/3 was used to estimate a fracture aperture, where b is the fracture aperture, d is the core diameter, and ke is the effective oil permeability of the fractured core. […] Af and Am are cross-sectional areas of the fracture and matrix, respectively. kf and km are permeabilities of the fracture and matrix, respectively.
The initial RB stage was at 6 cm^3/h for 1.5 pore volumes injected (PVI), then at 0.05 cm^3/h for 0.3-0.4 PVI, and at 6 cm^3/h until there was no oil production. After that, a chemical slug (3-pentanone or surfactant) was injected at 0.6 cm^3/h for 1.6 PVI. Finally, the chase RB was injected at 0.6 cm^3/h. […] However, it was terminated after 1.2 PVI of the chase RB for core 1 because of operational constraints.
The coreflood effluent was collected in plastic graduating cylinders at room temperature. To correct the oil recovery factor for 3-pentanone solubility in oil, the 3-pentanone concentration in recovered oil was measured by the proton nuclear magnetic resonance (H NMR) method for the chemical slug and chase RB flooding periods for core 1.

[6] = Solubility of water in 3p; format: physicochemical; conditions: 343 K
[7] = Volume change on mixing of 3-pentanone and RB (molar volume); format: physicochemical; conditions: 347 K and atmospheric pressure

For `CCC(=O)CC` [3-pentanone], the “phase separation of 3p/crude oil mixtures” value [1] was “No phase separation was observed”, the Density [2] was 760 kg/m^3 and the “density of crude oil diluted with 18.6 wt % 3-pentanone” value ([3]; atmospheric pressure) was 772 kg/m^3. The Density ([3]; crude oil with 18.6 wt % (33 mol %) 3-pentanone, 103.97 kPa) was 771.8049 kg/m^3, the Density ([3]; crude oil with 18.6 wt % (33 mol %) 3-pentanone, 1385.02 kPa) was 773.0452 kg/m^3 and the Density ([3]; crude oil with 18.6 wt % (33 mol %) 3-pentanone, 3452.00 kPa) was 775.0159 kg/m^3. For the same compound, the Density ([3]; crude oil with 18.6 wt % (33 mol %) 3-pentanone, 6899.03 kPa) was 778.2247 kg/m^3, the Density ([3]; crude oil with 18.6 wt % (33 mol %) 3-pentanone, 10345.03 kPa) was 781.3632 kg/m^3 and the Density ([3]; crude oil with 41.0 wt % (60 mol %) 3-pentanone, 107.01 kPa) was 768.9360 kg/m^3. For the same compound, the Density ([3]; crude oil with 41.0 wt % (60 mol %) 3-pentanone, 1379.02 kPa) was 770.3187 kg/m^3, the Density ([3]; crude oil with 41.0 wt % (60 mol %) 3-pentanone, 3447.03 kPa) was 772.3456 kg/m^3 and the Density ([3]; crude oil with 41.0 wt % (60 mol %) 3-pentanone, 3891.03 kPa) was 775.7424 kg/m^3. The Density ([3]; crude oil with 41.0 wt % (60 mol %) 3-pentanone, 10343.03 kPa) was 779.0497 kg/m^3, the Density ([3]; crude oil with 64.9 wt % (80 mol %) 3-pentanone, 101.01 kPa) was 765.4374 kg/m^3 and the Density ([3]; crude oil with 64.9 wt % (80 mol %) 3-pentanone, 1383.02 kPa) was 766.7794 kg/m^3. The Density ([3]; crude oil with 64.9 wt % (80 mol %) 3-pentanone, 3445.03 kPa) was 769.0788 kg/m^3, the Density ([3]; crude oil with 64.9 wt % (80 mol %) 3-pentanone, 6896.00 kPa) was 772.6733 kg/m^3 and the Density ([3]; crude oil with 64.9 wt % (80 mol %) 3-pentanone, 10342.00 kPa) was 776.2332 kg/m^3. The “increase of oleic phase saturation (oil swelling)” value ([4]; 347 K, atmospheric pressure) was 24%, the “enhancement of oil recovery rate because of oil dilution by 3p (scaling theory)” value ([4]; spontaneous imbibition) was 13% and the “incremental oil recovery factor, chase RB flooding stage” value ([5]; 1.2 PVI chase RB (terminated), core 1, 347 K) was 8.4%. The “incremental oil recovery factor, chemical slug stage” value ([5]; 1.6 PVI slug after first RB flood, 1.1 wt % 3-pentanone in RB (core 1) or 1.0 wt % 2-EH-4PO-15EO in RB (core 2), 347 K) was 30.9%, the “total improved oil recovery” value ([5]; chemical slug + chase RB stages (1.2 PVI chase core 1; 7.0 PVI chase core 2), 347 K) was 39.3% and the “solubility of water in 3p” value [6] was “approximately 3 wt %”. For the same compound, the “volume change on mixing of 3-pentanone and RB” value [7] was “smaller than 0.39%”.
